Results reported in US20090209638A1, “TREATMENT FOR DEPRESSIVE DISORDERS” (priority 2006, published 2009).

Key:
[1] = tested on: Rats; experiment: Rat Forced Swim Test (behavioral despair test); assay type: in vivo; settings: for decrease in immobility time: dark phase
Description: Protocol: Animals were tested in the forced swim test using the protocol originally described by Porsolt et al (Eur. J. Pharmacol., 47, 379-391,1978). Rats were individually placed in a cylinder (Height=40 cm, Diameter=20 cm) containing 13 cm water (25° C.) for 15 minutes on the first day of the experiment (Session 1) and were then put back in the water 24 hours later for a 5 minute test (Session 2). The duration of immobility during the 5 minute test was measured. Six rats were studied per group. The test was performed blind. Session 1 and Session 2 were performed either during the light cycle, i.e. between 2.5 and 5.5 hours after lights-on, or during the dark cycle, i.e. between 2.5 and 5.5 hours after lights-off. The tests during the light cycle were therefore performed between 9:30 am and 12:30 pm, whereas the tests during the dark cycle, because of the light cycle shift, were performed between 14:30 pm and 17:30 pm.
To permit the 2 phases of the experiment (light phase and dark phase) to be performed on the same day by the same laboratory technician, the animals to be tested during the dark phase were submitted to a light cycle shift 12 days prior to the first session of the forced swim test whereby the light/dark cycle was advanced 7 hours (lights-on: 0:00 am, lights-off: 12:00 pm). The 12-day period was estimated to be sufficient for the dark-cycle animals to adjust to the shift. To habituate the rats to the light cycle shift, the dark-cycle animals were submitted to the shift 12 days prior to Session 1. To ensure otherwise similar conditions between the light-cycle and dark-cycle animals, all animals to be used in the experiment were from the same delivery batch and were placed in their experimental living cages at the same time, i.e. 12 days before Session 1.
Testing during the light phase was performed under normal laboratory illumination, and testing during the dark phase was performed under infrared illumination. MA-1, agomelatine, and melatonin were evaluated at 2 oral (p.o.) doses each, administered twice (24 hours and 1 hour before Session 2). The first administration was given immediately after Session 1. Imipramine (64 mg/kg p.o.), administered twice under the same experimental conditions, was used as reference substance.

[2] = tested on: Mice; experiment: Mouse Forced Swim Test; assay type: in vivo
Description: Protocol: Animals were maintained on a 12:12 LD cycle with lights on at 0600 h. Mice were placed into the testing room at least 1 h prior to the start of the test. Vehicle, amitriptyline and MA-1 were administered under one of three conditions: A) acute treatment, animals dosed 30 minutes prior to testing; B) 4 day subchronic AM treatment, with dosing occurring during the early morning period (0900-1100 h), with the final dose occurring 30 min prior to testing; and C) subchronic PM treatment with dosing occurring during the evening period (1730-1800 h, right before lights off), and the forced swim test took place the following morning. Animals were tested in the forced swim test using a modification of the protocol originally described by Porsolt et al. (1978). Mice were placed into 1 L beakers (KIMAX #14005) filled with 800 ml of water (20-22° C.) for a 7 min swim period. Animals were only scored for the last 5 minutes of the test and were assigned either a “0” if they were actively swimming or “1” if they were immobile, except for small movements needed to keep afloat. During the 5 minute scoring period, there are ten 30 sec intervals scored for a total possible score of 0-10 for each mouse. Data was reported as median (interquartile range). Each study was run independently with separate groups of naive mice. Data were analyzed using Statview (SAS, Cary, N.C.) with a Kruskal-Wallis analysis, followed by Mann-Whitney U-test with the significance level set at p<0.05.

[3] = tested on: cerebellar cGMP; experiment: Stress-induced cerebellar cGMP elevation; assay type: in vivo, Rats; settings: for activity in the stress-induced cGMP assay: data not shown, levels similar to what was observed for MA-1
Description: Protocol: Animals were placed into a shock chamber with a steel grid floor and shocked at 1 mA for 10 seconds. One minute following the stressor, the animals were placed into a plastic restraint tube and sacrificed by microwave irradiation (1.8 sec at 3.5 kW). The cerebellum was rapidly removed, snap frozen, and stored at −80° C. prior to the cGMP assay. Non-stressed animals were taken directly from their cages and sacrificed by microwave irradiation and tissues were processed in a similar manner. Drug dosing was performed 30-60 min prior to foot-shock stress. For the cGMP assay, the tissue was homogenized in 2 ml of 1% perchloric acid using a Brinkman Polytron at setting #5 for ˜15 sec each and placed on ice until all samples were homogenized. Samples were then placed in an 85C water bath for 5 min, centrifuged at 2500G for 15 min, and ˜0.5 ml of the supernatant was collected for analysis. Supernatants were diluted 1:20 in sodium acetate buffer according to the directions of the manufacturer of the 1251-cGMP flashplates. Diluted samples were incubated overnight in flashplate wells with 1251-cGMP, assayed on a gamma-counter plate reader, and converted to pmol cGMP/mg tissue using a standard curve generated in the same experiment.

[4] = tested on: Rats; experiment: Modified forced swim test in rats (study not reported); assay type: in vivo, rat; settings: 5 mg/kg and 10 mg/kg
[5] = target: Melatonin-1 (MT1) receptor (Homo sapiens, UniProt P48039); settings: cited from earlier work
[6] = target: T1, Melatonin-2 (MT2) receptor (Homo sapiens, UniProt P49286); settings: cited from earlier work
T1 sequence (P49286 1-362): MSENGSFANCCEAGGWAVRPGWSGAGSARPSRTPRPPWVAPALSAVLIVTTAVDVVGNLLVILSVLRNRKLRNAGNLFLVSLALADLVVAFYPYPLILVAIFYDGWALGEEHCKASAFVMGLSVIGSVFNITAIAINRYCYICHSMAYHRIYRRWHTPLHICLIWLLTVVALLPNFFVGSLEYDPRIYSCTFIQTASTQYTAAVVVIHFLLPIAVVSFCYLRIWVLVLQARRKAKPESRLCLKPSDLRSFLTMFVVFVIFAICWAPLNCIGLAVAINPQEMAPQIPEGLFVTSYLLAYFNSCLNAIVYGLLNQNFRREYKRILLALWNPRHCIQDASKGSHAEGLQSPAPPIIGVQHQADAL

[7] = Solubility of MA-1; assay type: physicochemical
[8] = dark cycle, 64 mg/kg p.o. −24 h and −60 min
[9] = light cycle, 64 mg/kg p.o. −24 h and −60 min
[10] = condition A: acute treatment, testing 30 minute post-dose
[11] = condition B: 4-day sub-chronic AM dosing, testing 30 minutes following final dose
[12] = condition C: 4-day sub-chronic PM dosing, testing the following morning
[13] = dark cycle, 10 mg/kg p.o. −24 h and −60 min
[14] = dark cycle, 50 mg/kg p.o. −24 h and −60 min
[15] = light cycle, 10 mg/kg p.o. −24 h and −60 min
[16] = light cycle, 50 mg/kg p.o. −24 h and −60 min
[17] = dark cycle, 1 mg/kg p.o. −24 h and −60 min
[18] = light cycle, 1 mg/kg p.o. −24 h and −60 min

Sequence of Melatonin-1 (MT1) receptor (P48039 whole entry): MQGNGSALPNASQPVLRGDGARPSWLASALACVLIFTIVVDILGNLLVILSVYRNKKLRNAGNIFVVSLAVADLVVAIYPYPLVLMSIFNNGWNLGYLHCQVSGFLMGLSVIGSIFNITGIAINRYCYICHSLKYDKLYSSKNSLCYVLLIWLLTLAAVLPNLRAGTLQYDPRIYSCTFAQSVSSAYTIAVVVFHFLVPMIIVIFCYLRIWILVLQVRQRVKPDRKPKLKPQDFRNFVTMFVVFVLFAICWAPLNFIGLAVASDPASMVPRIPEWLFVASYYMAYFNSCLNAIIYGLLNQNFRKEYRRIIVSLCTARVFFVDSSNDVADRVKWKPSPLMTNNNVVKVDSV

Compound	activity in mouse forced swim model [2, 10]	activity in mouse forced swim model [2, 11]	activity in mouse forced swim model [2, 12]	DURATION OF IMMOBILITY % change from control [1, 13] [%]	DURATION OF IMMOBILITY mean ± s.e.m. [1, 13] [s]	DURATION OF IMMOBILITY % change from control [1, 14] [%]	DURATION OF IMMOBILITY mean ± s.e.m. [1, 14] [s]	decrease in immobility time ([1]; 10 mg/kg) [%]	DURATION OF IMMOBILITY % change from control [1, 15] [%]	DURATION OF IMMOBILITY mean ± s.e.m. [1, 15]	DURATION OF IMMOBILITY % change from control [1, 16]	DURATION OF IMMOBILITY mean ± s.e.m. [1, 16] [NS s]	activity in the stress-induced cGMP assay [3]	other results
CN(C)CCCN1c2ccccc2CCc2ccccc21 [Imipramine]														DURATION OF IMMOBILITY % change from control [1, 8]: −70%; DURATION OF IMMOBILITY mean ± s.e.m. [1, 8]: 63.0 ± 11.1 s; DURATION OF IMMOBILITY % change from control [1, 9]: −71%; DURATION OF IMMOBILITY mean ± s.e.m. [1, 9]: 49.5 ± 10.6 s
CN(C)CCC=C1c2ccccc2CCc2ccccc21 [Amitriptyline]	active	active	did not show activity											
COc1ccc2cccc(CCNC(C)=O)c2c1 [agomelatine]				−60	84.8 ± 8.2	−33	140.2 ± 19.1	60	−42	97.8 ± 13.5 s	+13%	191.0 ± 9.4	shown activity	decrease in immobility time ([1]; 50 mg/kg): 33%
COc1ccc2[nH]cc(CCNC(C)=O)c2c1 [Melatonin, melatonin]				−37	132.8 ± 16.5	−21	166.8 ± 16.6		−40	101.3 ± 18.8 s	0%	167.7 ± 10.8	shown activity	
CCC(=O)NC[C@@H]1C[C@H]1c1cccc2c1CCO2 [MA-1, (1R-trans)-N-[[2-(2,3-dihydro-4-benzofuranyl)cyclopropyl]methyl]propanamide]	did not demonstrate activity	did not demonstrate activity	did not demonstrate activity	−41	124.8 ± 18.8			41	−25	126.3 ± 26.9 NS s				effects on immobility, swimming, or climbing statistically different from vehicle [4]: did not show effects; affinity [5]: high affinity; affinity [6]: high affinity; DURATION OF IMMOBILITY % change from control [1, 17]: −37%; DURATION OF IMMOBILITY mean ± s.e.m. [1, 17]: 133.0 ± 6.6 s; decrease in immobility time ([1]; 1 mg/kg): 37%; DURATION OF IMMOBILITY % change from control [1, 18]: −14%; DURATION OF IMMOBILITY mean ± s.e.m. [1, 18]: 145.3 ± 26.0 NS s; attenuation of shock-induced increase in cerebellar cGMP levels ([3]; rats, electric shock 1 mA 10 s, doses of 0.1-10 mg/kg, dosed 30-60 min prior to foot-shock, no dose-responsiveness): ~50%; effect of pH on aqueous solubility [7]: practically unaffected by pH; solubility ([7]; in 95% ethanol, methanol, acetonitrile, ethyl acetate, isopropanol, polyethylene glycols (PEG-300 and PEG-400)): very soluble or freely soluble; solubility ([7]; in water): only slightly soluble; native pH of a saturated solution in water ([7]; saturated solution in water): 8.5
